Laboratory results from patent US8513446B2, “Stable crystal modifications of DOPC” (Merck Patent GmbH, priority 2008, dated 2013).

Key:
[1] = Hygroscopicity of solid DOPC; format: physicochemical
Excerpt: In addition, waxy DOPC can only be comminuted with difficulty and, like lyophilised DOPC, can only be weighed out with difficulty. This makes handling of this compound much more difficult.

[2] = stored under a protective gas at −20° C.; cited from earlier work
[3] = Storage stability of crystalline DOPC, residual content by HPLC; format: physicochemical; conditions: exclusion of air
Method: In order to determine the stability of crystalline DOPC, the substances are stored together with comparative samples at 25° C. and 60% relative humidity and at 40° C. and 75% relative humidity with exclusion of air. The residual content of DOPC is measured at periodic intervals and indicated compared with the initial value. Purity and content of DOPC are determined by HPLC. For the type I crystal modification, the following values were found: […]

[4] = 25° C./60% relative humidity, storage time 0 months
[5] = 25° C./60% relative humidity, storage time 3 months
[6] = 25° C./60% relative humidity, storage time 6 months
[7] = 25° C./60% relative humidity, storage time 9 months
[8] = 25° C./60% relative humidity, storage time 12 months
[9] = 25° C./60% relative humidity, storage time 18 months
[10] = 40° C./75% relative humidity, storage time 0 months
[11] = 40° C./75% relative humidity, storage time 3 months
[12] = 40° C./75% relative humidity, storage time 6 months
[13] = 40° C./75% relative humidity, storage time 9 months
[14] = 40° C./75% relative humidity, storage time 12 months

## CCCCCCCC/C=C\CCCCCCCC(=O)OC[C@H](COP(=O)([O-])OCC[N+](C)(C)C)OC(=O)CCCCCCC/C=C\CCCCCCCC [amorphous DOPC, reference compound]
[1]
  hygroscopicity: extremely hygroscopic

## CCCCCCCC/C=C\CCCCCCCC(=O)OC[C@H](COP(=O)([O-])OCC[N+](C)(C)C)OC(=O)CCCCCCC/C=C\CCCCCCCC [lyophilised DOPC]
[2]
  guaranteed shelf life: about 12 months

## CCCCCCCC/C=C\CCCCCCCC(=O)OC[C@H](COP(=O)([O-])OCC[N+](C)(C)C)OC(=O)CCCCCCC/C=C\CCCCCCCC [Crystalline DOPC]
[1]
  hygroscopicity: improved hygroscopicity

## CCCCCCCC/C=C\CCCCCCCC(=O)OC[C@H](COP(=O)([O-])OCC[N+](C)(C)C)OC(=O)CCCCCCC/C=C\CCCCCCCC [type I crystalline (R)-DOPC, 1,2-dioleoyl-sn-glycero-3-phosphocholine]
[3]; [4]
  purity of DOPC (HPLC) compared with the initial value: 100.0 Area-%
  residual content of DOPC compared with the initial value: 100.0 % by weight
[3]; [5]
  purity of DOPC (HPLC) compared with the initial value: 100.0 Area-%
  residual content of DOPC compared with the initial value: 100.9 % by weight
[3]; [6]
  purity of DOPC (HPLC) compared with the initial value: 100.0 Area-%
  residual content of DOPC compared with the initial value: 99.3 % by weight
[3]; [7]
  purity of DOPC (HPLC) compared with the initial value: 100.0 Area-%
  residual content of DOPC compared with the initial value: 100.8 % by weight
[3]; [8]
  purity of DOPC (HPLC) compared with the initial value: 99.7 Area-%
  residual content of DOPC compared with the initial value: 100.4 % by weight
[3]; [9]
  purity of DOPC (HPLC) compared with the initial value: 99.8 Area-%
  residual content of DOPC compared with the initial value: 100.6 % by weight
[3]; [10]
  purity of DOPC (HPLC) compared with the initial value: 100.0 Area-%
  residual content of DOPC compared with the initial value: 100.0 % by weight
[3]; [11]
  purity of DOPC (HPLC) compared with the initial value: 99.9 Area-%
  residual content of DOPC compared with the initial value: 100.0 % by weight
[3]; [12]
  purity of DOPC (HPLC) compared with the initial value: 99.8 Area-%
  residual content of DOPC compared with the initial value: 98.4 % by weight
[3]; [13]
  purity of DOPC (HPLC) compared with the initial value: 99.8 Area-%
  residual content of DOPC compared with the initial value: 99.8 % by weight
[3]; [14]
  purity of DOPC (HPLC) compared with the initial value: 99.7 Area-%
  residual content of DOPC compared with the initial value: 99.5 % by weight
